Data on 19 molecules can be found in patent publication US9056865B2, “Pyridine-2-derivatives as smoothened receptor modulators” (Pfizer Inc., priority 2010, dated 2015).

One assay has as its target human Smo (Homo sapiens (Human), UniProt Q99835). The assay is described as follows: Smo radioligand competition binding assay. The conditions noted are these: for inhibition at 0.05 µM: 0.05 μM test compound, read-out: Smo % inh. @ 0.05 μM. The method, then: Smo Radioligand Competition Binding Assay
Membranes were prepared from a stable cell line created in HEK293FlpIn-TetR cells (Invitrogen) using Flp recombinase-mediated insertion of the pSecTag-FRT/V5-His vector containing a cDNA encoding amino acids […] of human Smo fused to the murine Igk leader sequence to produce a cell surface expressed Smo 181-781 protein. Hygromycin-resistant clones were obtained and stained for LacZ expression (no expression indicates a correct knock-in of fusion cDNA). LacZ-negative cells were analyzed for binding tritiated Smo antagonists. For membrane preparation, the HEK293 cells expressing Smo 181-781 were grown to 90% confluence in nine to fifteen 245 mm×245 mm×22 mm dishes, washed with Dulbecco's PBS (15 mL per dish) and harvested via scraping in 10 mL of DPBS. The cells were collected and centrifuged at 1500 rpm (400×g) for 10 min at 4° C. The cell pellets were re-suspended in 40 mL of cold DPBS and washed by centrifugation at 2300 rpm (950×g max) for 10 minutes at 4° C. The supernatant was aspirated and the cell pellet was snap frozen in a methanol/dry ice bath and stored at −70° C. For membrane preparation, 15 mL of Membrane Preparation Buffer (50 mM Tris-HCl pH 7.5, 250 mM sucrose with Roche complete protease cocktail tablets) was added to the tube containing the cell pellet, then cells are rapidly thawed, and homogenized using an Ultra-Turrax T8 (IKA Labortechnik) set on “6” for 15 seconds for 5-6 times in icy water bath. This homogenate was diluted up to 50 mL using Membrane Preparation Buffer and centrifuged at 35,000 rpm in a Beckman Ti45 rotor (140,000×g) for 35 minutes at 4° C. followed by aspiration of the supernatant and re-suspension of the pellet in 5 mL of Assay Buffer (50 mM Tris-HCl pH 7.5, 100 mM NaCl, 25 mM MgCl2, 1 mM EDTA, and 0.1% protease free bovine serum albumin). The re-suspended pellet was then homogenized in a glass tissue grinder. The re-suspended membranes were aliquoted (0.5 mL aliquots), snap frozen and stored at −70° C. Total protein in the membrane preparation was determined using the Pierce BCA protein assay (Pierce Chemical).
For the binding competition assay, 100 μL of Assay Buffer was added to all the wells of a 96 well GF/B filter plate (Millipore MultiScreen-HTS-FB cat# MSFBN6B50) for 10 minutes to pre-wet the filter prior to evacuation of the buffer (8 inches Hg for 8 seconds). To the pre-wet wells is added: 20 μL of Assay Buffer, 10 μL diluted test agent, 20 μL of a tritiated Smo antagonist (15 nM stock solution), and 50 μL of membrane preparation (40 μg total protein per well). The plates are sealed and mixed at room temperature for 5 min, incubated at room temperature for 2 hours, then washed 5 times with 100 μL/each of wash buffer and vacuum dried for 8 seconds at 8 inches Hg. The plate is then dried for one hour in a 60° C. oven prior to the addition of 45 μL of Microscint 20 (Packard, #6013621) to each well and incubation at RT for 30 minutes to 1 hour. The plate is counted in a TopCount scintillation counter (Perkin Elmer).
Data analysis uses Excel for % Inhibition and Graphpad Prism for IC50 calculation. Total binding (TB, in the absence of inhibitors)=average of tritiated Smo antagonist 3 nM+Smo membrane (40 μg/wells (approx 5000-7000 CPM)). Non-specific binding (NSB)=average of tritiated Smo antagonist (3 nM)+cold Smo antagonist (30 μM)+Smo membrane (approx 600-1200 CPM). Specific binding (SB)=(total binding−non-specific binding). % Inhibition=[1−(compound Specific binding/control Specific binding)]×100%. IC50 is calculated by fitting the data to the four parameter sigmoidal dose-response curve (variable slope) Y=Bottom+(Top-Bottom)/(1+10^((LogEC50−X)*HillSlope)). X is the logarithm of the inhibitor concentration. Y is the response; Y starts at Bottom and goes to Top with a sigmoid shape.
For orientation: Loss of bound radioactivity is the signal in a displacement assay; it reports binding, not function.

In the next assay the test system is Gli-Luc/MEF cells. Briefly: Gli-Luc/MEF assay. It counts as cell-based, mouse. To be noted: Mus musculus, MEF; Shh-stimulated luciferase, 48 hours. The procedure:
The Gli-Luc/MEF cells obtained from Gli-Luc transgenic mice contain a luciferase reporter gene under the control of the Gli response element. Luciferase activity stimulated with Sonic hedgehog ligand was inhibited by Smo inhibitors, and IC50 was subsequently calculated.
Plates were incubated at 37° C. and 5% CO2 overnight. On day two, cells were dosed with test compounds at a final concentration ranging from 3 μM to 50 μM at a 3-time series dilution. Immediately after dosing cells with compounds, recombinant mouse sonic hedgehog (Shh, R&D Systems 464-SH) was added to a final concentration of 2 μg/mL. The cells were incubated with compounds and Shh for 48 hours at 37° C. and 5% CO2. Luciferase assays were conducted on Day 4 using the Bright-Glo Luciferase assay system (Promega E2620) according to Promega's protocol. Briefly, Bright-Glo luciferase reagent was made up and 25 μL were added to each well of the 384-well plate containing media. Plates were kept at room temperature for 5 minutes, and then read on an Envision Luminescence plate reader (Perkin-Elmer). IC50 of the inhibition was calculated by using GraphPad Prism.

By IC50 is commonly meant the concentration that inhibits the measured activity by half. A high value points to weaker potency.

Sequence of human Smo (Q99835 181-787): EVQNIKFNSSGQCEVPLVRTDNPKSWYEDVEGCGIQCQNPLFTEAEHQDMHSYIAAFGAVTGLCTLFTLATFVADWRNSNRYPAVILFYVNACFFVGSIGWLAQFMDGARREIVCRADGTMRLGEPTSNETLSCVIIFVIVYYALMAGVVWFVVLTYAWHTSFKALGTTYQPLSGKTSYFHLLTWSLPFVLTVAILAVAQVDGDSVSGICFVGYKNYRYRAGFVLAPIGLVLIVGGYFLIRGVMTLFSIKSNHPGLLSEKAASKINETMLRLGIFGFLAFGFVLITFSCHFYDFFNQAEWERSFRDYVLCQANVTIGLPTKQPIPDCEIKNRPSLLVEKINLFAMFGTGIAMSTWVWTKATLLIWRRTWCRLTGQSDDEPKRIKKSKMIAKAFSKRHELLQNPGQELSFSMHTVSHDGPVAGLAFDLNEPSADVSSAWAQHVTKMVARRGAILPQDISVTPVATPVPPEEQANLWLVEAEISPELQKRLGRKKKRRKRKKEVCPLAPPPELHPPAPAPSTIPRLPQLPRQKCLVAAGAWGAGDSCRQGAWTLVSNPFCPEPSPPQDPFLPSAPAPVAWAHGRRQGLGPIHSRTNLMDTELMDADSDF

On to `Cc1cccnc1-c1cc(N2CCC(C(=O)N[C@@H]3CS(=O)(=O)C[C@H]3O)CC2)ncc1Cl` [Example A-68, 1-(5′-chloro-3-methyl-2,4′-bipyridin-2′-yl)-N-[(3S,4S)-4-hydroxy-1,1-dioxidotetrahydro-3-thienyl]piperidine-4-carboxamide], for which the IC50 turned out to be 120 nM on human Smo and 54.4 nM with Gli-Luc/MEF cells. In addition, at human Smo, the inhibition at 0.05 µM turned out to be 88.8%.

Regarding `Cc1cccnc1-c1cc(N2CCC(NS(C)(=O)=O)CC2)ncc1Cl` [Example A-8, N-[1-(5′-chloro-3-methyl-2,4′-bipyridin-2′-yl)piperidin-4-yl]methanesulfonamide], the IC50 at human Smo worked out at 18.7 nM; in the assay on Gli-Luc/MEF cells, 39.2 nM. Besides, the inhibition at 0.05 µM at human Smo came to 92%.

For `CS(=O)(=O)NC1CCN(c2cc(-c3ncccc3Cl)c(Cl)cn2)CC1` [Example A-10, N-[1-(3,5′-dichloro-2,4′-bipyridin-2′-yl)piperidin-4-yl]methanesulfonamide], on human Smo, the IC50 was 32.1 nM and the inhibition at 0.05 µM was 75%. Besides, the IC50 in the assay on Gli-Luc/MEF cells came out at 209 nM.

As for `O=C(CCO)NC1CCN(c2ccc(Cl)c(-c3ccccn3)n2)CC1` [Example A-130, N-[1-(3-chloro-2,2′-bipyridin-6-yl)piperidin-4-yl]-3-hydroxypropanamide], the inhibition at 0.05 µM on human Smo turned out to be 81.3%. This molecule displayed an IC50 in the assay with Gli-Luc/MEF cells of 35.5 nM.

On to `Cc1cnc(-c2cc(N3CCN(S(C)(=O)=O)CC3)ncc2Cl)c(C)c1` [Example A-104, 5′-chloro-3,5-dimethyl-2′-[4-(methylsulfonyl)piperazin-1-yl]-2,4′-bipyridine], for which the IC50 on human Smo stood at 36 nM; with Gli-Luc/MEF cells it was 12.7 nM. For the same molecule, on human Smo, the inhibition at 0.05 µM worked out at 92.9%.

Take `COCCOCC1CCN(c2cc(-c3ncccc3C)c(Cl)cn2)CC1` [Example A-37, 5′-chloro-2′-{4-[(2-methoxyethoxy)methyl]piperidin-1-yl}-3-methyl-2,4′-bipyridine]: the IC50 at human Smo is 209 nM; in the assay with Gli-Luc/MEF cells, 98 nM. Also, the inhibition at 0.05 µM at human Smo worked out at 71.6%.

With `Cc1cccnc1-c1nc(N2CCC(O)CC2)ncc1Cl` [Example A-30, 1-[5-chloro-4-(3-methylpyridin-2-yl)pyrimidin-2-yl]piperidin-4-ol], on human Smo, the IC50 stood at 160 nM and the inhibition at 0.05 µM came out at 77.7%. The molecule further came in with an IC50 in the assay on Gli-Luc/MEF cells of 246 nM.

Turning to `O=S(=O)(CCO)N1CCN(c2ccc(Cl)c(-c3ccccn3)n2)CC1` [Example A-137, 2-{[4-(3-chloro-2,2′-bipyridin-6-yl)piperazin-1-yl]sulfonyl}ethanol], the inhibition at 0.05 µM on human Smo worked out at 45.8%.

On to `Cc1cccnc1-c1cc(N2CCC(C(=O)N[C@@H]3CC[C@@H](O)C3)CC2)ncc1Cl` [Example A-66, 1-(5′-chloro-3-methyl-2,4′-bipyridin-2′-yl)-N-[(1R,3R)-3-hydroxycyclopentyl]piperidine-4-carboxamide], for which, at human Smo, the IC50 is 162 nM and the inhibition at 0.05 µM worked out at 81.7%. Also, half-maximal inhibition in the assay with Gli-Luc/MEF cells (IC50) required 94 nM.

Take `CS(=O)(=O)NC1CCN(c2cc(-c3ccc(C(F)(F)F)cn3)c(Cl)cn2)CC1` [Example A-13, N-{1-[5′-chloro-5-(trifluoromethyl)-2,4′-bipyridin-2′-yl]piperidin-4-yl}methanesulfonamide]: at human Smo, the IC50 stood at 110 nM and the inhibition at 0.05 µM was determined as 56%. The molecule further yielded an IC50 with Gli-Luc/MEF cells of 404 nM.

In the case of `COC(=O)NC1CCN(c2cc(-c3ncccc3C)c(Cl)cn2)CC1` [Example A-32, methyl [1-(5′-chloro-3-methyl-2,4′-bipyridin-2′-yl)piperidin-4-yl]carbamate], the IC50 stood at 77.9 nM on human Smo and 27.4 nM in the assay on Gli-Luc/MEF cells. Also, the inhibition at 0.05 µM at human Smo worked out at 86.6%.

Consider `CS(=O)(=O)NC1CCN(c2cc(-c3ccc(Cl)cn3)c(Cl)cn2)CC1` [Example A-11, N-[1-(5,5′-dichloro-2,4′-bipyridin-2′-yl)piperidin-4-yl]methanesulfonamide], for which the IC50 on human Smo is 32.9 nM; with Gli-Luc/MEF cells, 152 nM. Moreover, the inhibition at 0.05 µM at human Smo was determined as 78%.

`Cc1cnc(-c2cc(N3CCN(C(=O)CC(C)(C)O)CC3)ncc2Cl)c(C)c1` [Example A-103, 4-[4-(5′-chloro-3,5-dimethyl-2,4′-bipyridin-2′-yl)piperazin-1-yl]-2-methyl-4-oxobutan-2-ol]: the values for the IC50 at human Smo and in the assay with Gli-Luc/MEF cells were 19.4 nM and 11.7 nM, respectively. On human Smo, the inhibition at 0.05 µM worked out at 98%.

With `CS(=O)(=O)CCC(=O)NC1CCN(c2ccc(Cl)c(-c3ccccn3)n2)CC1` [Example A-128, N-[1-(3-chloro-2,2′-bipyridin-6-yl)piperidin-4-yl]-3-(methylsulfonyl)propanamide], the figures for the IC50 at human Smo and in the assay on Gli-Luc/MEF cells were 31.3 nM and 15.2 nM, respectively. The inhibition at 0.05 µM on human Smo was determined as 95%.

As to `Cc1cccnc1-c1cc(N2CCC(NC(=O)CN(C)C)CC2)ncc1Cl` [Example A-31, N-(1-(5′-chloro-3-methyl-[2,4′-bipyridin]-2′-yl)piperidin-4-yl)-2-(dimethylamino)acetamide], the IC50 came to 43.4 nM on human Smo and 20.8 nM in the assay on Gli-Luc/MEF cells. Besides, at human Smo, the inhibition at 0.05 µM amounted to 89.2%.

For the molecule `Cc1ccc(-c2nc(N3CCC(NS(C)(=O)=O)CC3)ncc2Cl)nc1` [Example A-119, N-{1-[5-chloro-4-(5-methylpyridin-2-yl)pyrimidin-2-yl]piperidin-4-yl}methanesulfonamide], the IC50 at human Smo was found to be 58.9 nM; in the assay on Gli-Luc/MEF cells, 22.9 nM. Also, the inhibition at 0.05 µM at human Smo was 88.5%.

In the case of `Cc1cccnc1-c1cc(N2CCC(C(=O)N3CCc4c(c(C(C)C)nn4C)C3)CC2)ncc1Cl` [Example A-65, 5′-chloro-2′-{4-[(3-isopropyl-1-methyl-1,4,6,7-tetrahydro-5H-pyrazolo[4,3-c]pyridin-5-yl)carbonyl]piperidin-1-yl}-3-methyl-2,4′-bipyridine], the half-maximal inhibitory concentration (IC50) on human Smo was determined as 145 nM; in the assay on Gli-Luc/MEF cells, 124 nM. For the same molecule, the inhibition at 0.05 µM at human Smo turned out to be 78.5%.

As to `Cc1cccnc1-c1cc(N2CCC3(CC2)CNC(=O)O3)ncc1Cl` [Example A-21, 8-(5′-chloro-3-methyl-2,4′-bipyridin-2′-yl)-1-oxa-3,8-diazaspiro[4.5]decan-2-one], at human Smo, the IC50 was 297 nM and the inhibition at 0.05 µM is 65.9%. The same molecule yielded an IC50 in the assay with Gli-Luc/MEF cells of 114 nM.

In the case of `CS(=O)(=O)NC1CCN(c2cc(-c3ccccn3)c(Cl)cn2)CC1` [Example A-7, N-[1-(5′-chloro-2,4′-bipyridin-2′-yl)piperidin-4-yl]methanesulfonamide], the inhibition at 0.05 µM at human Smo was found to be 45%.
